Experimental data from PMC10714399, “Open Source Antibiotics: Simple Diarylimidazoles Are Potent against Methicillin-Resistant Staphylococcus aureus” (ACS Infectious Diseases, 2023).
≈ marks a conversion by molar mass, not a printed value. Blank lines part the entries; values can stand above or below the molecule they belong to.

Tests used:
[1] = test system: Cryptococcus neoformans H99 ATCC 208821; test: CO-ADD antifungal assay, C. neoformans; format: cell-based; conditions: ATCC208821
Experimental: Hit Confirmation of active compounds by whole cell growth inhibition assays was conducted as an 8-point dose response to determine the Minimum Inhibitory Concentration (MIC), in duplicate (n=2). The inhibition of growth is measured against those microorganisms that […]
Included in the Hit Confirmation were 5 bacteria: Escherichia coli, Klebsiella pneumoniae, Acinetobacter baumannii, Pseudomonas aeruginosa and Staphylococcus aureus, and 2 fungi Candida albicans and Cryptococcus neoformans.
In addition to determining MIC, active compounds were counter screened for cytotoxicity against a human embryonic kidney cell line, HEK293, by determining their CC50 value. The compounds were also screened for haemolysis of human red blood cells.
Assay Parameters Bacteria Fungi HEK293 Haemolysis […]
Duplicate (n=2) Duplicate (n=2) Duplicate (n=2) Duplicate (n=2)
QC Control MIC: Control MIC: Control CC50: Control HC10:
Non-Binding Non-Binding TC, 384-well Polypropylene […]
Fungi strains were cultured for 3 days on Yeast Extract-Peptone Dextrose (YPD) agar at 30 °C. A yeast suspension of 1 x 10^6 to 5 x 10^6 CFU/mL (as determined by OD530) was prepared from five colonies. […]
In both cases, the percentage of growth inhibition was calculated for each well, using the negative control (media only) and positive control (fungi without inhibitors) on the same plate. […]
(§1) Reading Plates - Haemolysis Clear 384w Corning 3680 […]

human red blood cells = format: cell-based; conditions: red cells of human, 20 h
Experimental: (§2) The absorbance was measured using a Tecan M1000 Pro monochromator plate reader.
(1 picture or pasted object on this page, not shown here)

molecular beacon DNA = test: DNA binding assay (molecular beacon melt curve); conditions: compound 0-5 μM, DNA 400 nM
Excerpt: An attempt to characterize the mechanism of toxicity led to testing compounds’ interactions with DNA molecular beacons, which are short strands of DNA tagged with a donor–acceptor pair of fluorophores. The proximity between the fluorophores when the DNA strand is correctly folded results in no fluorescence from the donor; should a compound interfere with DNA folding, a change in the melting temperature will be observed.
A molecular beacon DNA sequence [FAM] CGTATATATATATTTTTATATATATACG [TAM] (Eurofin Genomics, Germany) labeled with fluorescein–tetramethylrhodamine donor–acceptor pair was dissolved in nuclease-free water at 100 μM, aliquoted, and kept frozen at −20 °C.
A working 2 μM DNA solution and compound dilution at 2 and 20 μM in hybridization buffer (10 mM Tris, 1 mM EDTA, 50 mM NaCl, 1.5 mM MgCl2 pH 8) was made. DNA was annealed by heating up to 95 °C on a heat block and allowing to cool down to room temperature. […]
Measurements on the prepared plates were made on an Applied Biosystems 7500/7500 FastReal-Time PCR System (ThermoFisher, UK). A standard melt curve experiment was setup where temperature was ramped up from 15 to 90 °C at a 1% step gradient and fluorescence was monitored for filters 1 (FAM) and 3 (TAMRA). Fluorescence first derivatives against temperature were exported to Microsoft Excel and peak fitting was done using Origin 2022B.

[2] = HEK293 toxicity, 96-well dose-response (UCL; MTT or resazurin, with or without recovery); format: cell-based, human; conditions: human, HEK293 cells; across protocol variations (recovery yes/no, MTT/resazurin); read-out: CC50 HEK293
Experimental: The importance of balancing potency vs MRSA and cytotoxicity led us to examine a subset of compounds more thoroughly for toxicity against human embryonic kidney cell line HEK293. […] Dmax is a parameter that quantifies toxicity at the highest tested concentration (32 μg/mL for all compounds), calculated as reciprocal percentage of viable cells (100 – viability%), where cells either were allowed to recover or viability was measured immediately after treatment. […] Our efforts focused on trying to replicate the original toxicity experiments (by CO-ADD) with tamoxifen using a protocol modified for use with 96-well plates. Given the variability of protocols and results in the literature,[28] it was important to compare with a standard protocol we have reliably used in our own laboratories.[29]−[33] […] Truly “non-toxic” compounds might be expected to show Dmax < 50% for all experiment variations, e.g., 861. […] A large spread of Dmax values comparing recovery and non-recovery conditions larger than 20% is perhaps indicative of a mechanism of toxicity that persists beyond exposure, i.e., cytotoxic compounds that continue to induce toxicity as cells recover and restart dividing, for example, compounds 865, 870, 871, 980, and 981. […] This variability could be driven by interference of the compounds with the fluorescence readout or resorufin build-up as previously described.[27]
HEK293 cells (ATCC, UK) at passage 32 were a kind gift from Dr. Ben Allsop from the Translational Research Office at University College London. Cells were tested for mycoplasma using a MycoAlert Detection Kit (Lonza, Switzerland) as per manufacturer instructions, frozen stocks were stored in liquid nitrogen, and cells were re-tested whenever a new aliquot was thawed.
Cells were maintained in DMEM (Sigma-Aldrich, UK) supplemented with 10% heat-inactivated FBS (Sigma-Aldrich, UK), 1% GlutaMax (ThermoFisher, UK), and 1% sodium pyruvate (Lonza, UK) without antibiotics in an incubator at 37 °C and 5% CO2. Media was changed every 2 days, and cells were passaged every 3–4 days at a subcultivation ratio of 1:10, by detaching the cells with phenol-free TrypLE Express (ThermoFisher, UK), after washing with HBSS Ca^2+/Mg^2+ (ThermoFisher, UK). Up to 55 passages were used throughout the experiments.
(a) Cell seeding: At subculture, a dilute solution of cells was counted using Trypan Blue (Sigma-Aldrich, UK) and a hemocytometer. Cells were further diluted to 7000 or 50 000 cells/mL for experiments.
For recovery experiments, 700 cells (100 μL) were seeded in 96-well plates and incubated for 48 h while cells reached exponential phase.
For non-recovery experiments, 5000 cells (100 μL) were seeded in 96-well plates and incubated for 48 h while cells reached confluence. This is the same number of cells as per the CO-ADD protocol where 384-well plates were used, but we extended the growth time to 48 h to produce a similar confluency.
Stock solutions were diluted 100 times (to 1% DMSO) to 32 μg/mL in full medium (vortexed briefly) and then serially diluted using a digital pipet (Explorer, Eppendorf, Germany) at a dilution factor of 2 to a final concentration of […].
(c) Dosing experiments: At the specified time after seeding, media was removed from cells, cells were washed with HBSS Ca^2+/Mg^2+ (100 μL), and 100 μL of diluted compounds were added as per Supporting Information - Biology, Figure S4, and incubated for 24 h.
After treatment, solutions were removed, and cells were washed with HBSS Ca^2+/Mg^2+. For non-recovery experiments, viability was determined immediately as described below.
For recovery experiments, fresh media was added to plates (100 μL) and cells were returned to the incubator for another 72 h, after which viability was recorded as described below.
i. MTT assay: 3-[4,5-Dimethylthiazol-2-yl]-2,5-diphenyltetrazolium bromide (MTT) (Sigma-Aldrich, UK) was dissolved in sterile PBS at 5 mg/mL with sonication (20 min), protected from light. […]

in vitro = format: cell-based; conditions: human
Experimental: HEK293 cells were counted manually in a Neubauer haemocytometer and then plated in the 384-well plates containing the compounds to give a density of 5000 cells/well in a final volume of 50 µL. DMEM supplemented with 10% FBS was used as growth media and the cells were incubated together with the compounds for 20 h at 37 °C in 5% CO2.
Cytotoxicity (or cell viability) was measured by fluorescence, ex: 560/10 nm, em: 590/10 nm (F560/590), after addition of 5 µL of 25 µg/mL resazurin (2.3 µg/mL final concentration) and after incubation for further 3 h at 37 °C in 5% CO2. The fluorescence intensity was measured using a Tecan M1000 Pro monochromator plate reader, using automatic gain calculation. […]
Human whole blood was washed three times with 3 volumes of 0.9% NaCl and then resuspended in same to a concentration of 0.5 x 10^8 cells/mL, as determined by manual cell count in a Neubauer haemocytometer. […]
Haemolysis was determined by measuring the supernatant absorbance at […] (OD405).
as §2
HC10 and HC50 (concentration at 10% and 50% haemolysis, respectively) were calculated by curve fitting the inhibition values vs. log(concentration) using a sigmoidal dose-response function with variable fitting values for top, bottom and slope. […]
as §1

Structure (SMILES): OC(Cn1cncn1)(Cn1cncn1)c1ccc(F)cc1F [Fluconazole]
MIC [1]: 8 µg/mL

Structure (SMILES): CC[C@H](C)[C@H](NC(=O)CN)C(=O)NCC(=O)N[C@@H](C)C(=O)N[C@H](C(=O)N[C@@H](CC(C)C)C(=O)N[C@@H](CCCCN)C(=O)N[C@H](C(=O)N[C@@H](CC(C)C)C(=O)N[C@H](C(=O)N[C@H](C(=O)NCC(=O)N[C@@H](CC(C)C)C(=O)N1CCC[C@H]1C(=O)N[C@@H](C)C(=O)N[C@@H](CC(C)C)C(=O)N[C@H](C(=O)N[C@@H](CO)C(=O)N[C@@H](Cc1c[nH]c2ccccc12)C(=O)N[C@H](C(=O)N[C@@H](CCCCN)C(=O)N[C@@H](CCCNC(=N)N)C(=O)N[C@@H](CCCCN)C(=O)N[C@@H](CCCNC(=N)N)C(=O)N[C@@H](CCC(N)=O)C(=O)N[C@@H](CCC(N)=O)C(N)=O)[C@@H](C)CC)[C@@H](C)CC)[C@@H](C)O)[C@@H](C)O)C(C)C)C(C)C [Melittin]
HC10 (concentration at 10% haemolysis) (human red blood cells): 2.7 µg/mL

effect on DNA molecular beacon melting temperature (molecular beacon DNA): dose–response behavior
Structure (SMILES): COc1cccc2c1C(=O)c1c(O)c3c(c(O)c1C2=O)C[C@@](O)(C(=O)CO)C[C@@H]3O[C@H]1C[C@H](N)[C@H](O)[C@H](C)O1 [doxorubicin]

Structure (SMILES): CC/C(=C(\c1ccccc1)c1ccc(OCCN(C)C)cc1)c1ccccc1 [tamoxifen, reference compound]
CC50 at 24 h [2]: 5.3 to 15.5 µg/mL (≈ 14.3 to 41.7 µM)
CC50 at 20 h (in vitro): 9 µg/mL (≈ 24.2 µM)
